Reference: patent US20040087842A1, “Fluorescent probes for saccharrides” (priority 2002, published 2004)
Like-named read-outs stand apart in the source and are kept apart here.

How the values were obtained:
[1] = literature value; read-out: KD D-galactose; cited from earlier work
[2] = cited from earlier work
[3] = cited from earlier work; for decrease of emission intensity after addition of glucose: pH 7.4, literature
[4] = Titration curves against pH (pKa of the boronic acid group) with and without sugar; format: physicochemical; settings: for pKa: aqueous buffer solutions with methanol
Protocol: Titration curves against pH were measured in buffer solutions: acetate buffer for pH 4.0-5.5, phosphate buffer for pH 6.0-9.0 and carbonate buffer for pH 10,0-11.0. Titration curves were fitted and pKa (pKa=−log Ka) values were obtained using the equation: [formula]
(§1) where Iacid and Ibase are the intensity limits in the acid and basic region, respectively. Titration curves against sugar were fitted and dissociation constant (KD) values were obtained using the equation: [formula]
(§2) where Io and If are the initial (no sugar) and final (plateau) intensities of the titration curves. […]

[5] = Fluorescence titration curves against sugar (dissociation constant), D-galactose; format: binding
Protocol: (§3) Stilbene-4-boronic acid (STBA), 4′-cyanostilbene-4-boronic acid (CSTBA), 4′-methoxystilbene-4-boronic acid (MSTBA) and 4′-(dimethylamino)stilbene-4-boronic acid (DSTBA) were synthesized by the Wittig reaction between the para-substituted benzaldehydes and the para-boronic acid derivative of the benzyltriphenylphosphonium bromide. This latter was synthesized by the reaction of the p-bromomethylphenylboronic acid with triphenylphosphine in toluene. […] Absorption spectrawere recorded with a Cary 50 UV-Vis spectrophotometer from Varian. Emission spectra were recorded with a Varian Eclipse spectrofluorometer from Varian. In both cases, the measurements were taken at room temperature in a 1 cm quartz cuvette. For all measurements, the absorbances of the solutions were about 0.1 corresponding to a concentration range of 2-3×10^−6 M of the fluorophore. Fluorescence quantum yields were measured against p-quaterphenyl in cyclohexane (ΦF=0.89) for trans-stilbene (ST) and STBA, anthracene in cyclohexane (φF=0.36) for CSTBA and MSTBA and Quinine sulfate in 1N sulfuric acid (ΦF=0.577) for DSTBA.
as §1
(§4) where Io and If are the initial (no sugar) and final (plateau) intensities of the titration curves. All solutions in water and buffer contained also 33.3% […] methanol to avoid any problem due to the aggregation.

[6] = Fluorescence titration curves against sugar (dissociation constant), D-fructose; format: binding
Protocol: as §3, §1, §4

[7] = Fluorescence titration curves against sugar (dissociation constant), D-glucose; format: binding
Protocol: as §3, §1, §2

[8] = Fluorescence titration curves against sugar (dissociation constant), D-fructose; format: binding; settings: compounds 4 and 5; phosphate buffer pH 8.0/methanol 1:2 (v/v)
[9] = Solubility observation during titrations; format: physicochemical; settings: methanol/water mixture
From the text: (§5) As discussed in the literature, the change is the intensity is attributed to the removal of the PET quenching due to the interaction between the boron and nitrogen atoms following the binding with glucose. In attempt to see the possible interference from macrobiosystems, titration curves have also been measured in presence of BSA and two detergents, one with a […] charged head group (HDTBr) and the other with a […] charged head group (SDS). BSA has a little effect on the titration curve of 7 and no effect for compound 8. The effect of BSA one compound 7 could be the result of an interaction between these two compounds. But, as the measurements are taken in a mixture of methanol and water, aggregation could not be neglect. […] To obtain a reproducible titration curve, vigorous stirring and time must be applied. In the presence of micelles, a complete inhibition of the intensity change is observed. […] For compound, the dissociation constant is in the millimolar range which is characteristic with the boronic acid group. For compound 8, this dissociation constant goes down to submillimolar range. This is due to the ability of both boronic acid group present on compound 8 to bind one molecule of glucose.

[10] = Stability and dissociation constants of 7 and 8 for D-glucose from steady-state and frequency-domain fluorescence; format: binding; settings: 1:1 complex with D-glucose, methanol/phosphate buffer pH 7.7 (1:3)
From the text: as §5
Titration curves obtain with the mean lifetime and with the phase angle and modulation are shown in FIGS. 24 and 25 respectively for both compounds. […] This is due to the fact that the short lifetime component becomes less important and gradually the decay become more monoexponential with the addition of glucose. For compound 8, the combination of larger mean lifetime change and decrease of the short lifetime component result in a larger change in the phase angle and modulation with the presence of glucose. The apparent association constants obtained with the mean lifetime, phase angle and modulation show a decrease of an order in comparison with the KD obtained with the steady-state intensity change. […] This is due to the more important contribution of the complex (probe with analyte) on the lifetime because of the higher quantum yield and longer lifetime of the latter.
Steady-state fluorescence measurements were performed in 1 cm quartz cuvette in an ISS spectrofluorometer.
Frequency-domain (FD) measurements were performed using instrumentation described previously (65). The Domain (TD measurements can also be applied to the fluorescent compounds and methods of the present invention, as readily recognized by those of ordinary skill in the art. For Example 4, an amplitude modulated UV-LED was use as light source given and peak intensity centered around 370 nm. Emission was observed through a 415 nm cut-off and a 420 nm interference filter. The FD or TD intensity decay data were analyzed by nonlinear least squares in terms of the multiexponential model: [formula]
The values of (τ) are thought to be proportional to the quantum yield of the sample. […] Stability and association constants are determined according to the method described in the literature.

[11] = Emission intensity change of STBA after addition of sugars; settings: phosphate buffer pH 8.0/methanol 2:1 (v/v), λex=310 nm
From the text: A decrease of the fluorescence emission is observed after the addition of sugar. The overall decrease is relatively weak, about 15%. Since the same intensity change is observed by increasing the pH, this change is attributed to the formation of the anionic form of the boronic acid group. […] The decrease of this pKa for the complex with sugar is also a general observation for this chelator group. […] At pH 8.0, STBA is present mostly in its neutral form. After the addition of sugar, the complex exists under the anionic form due to its lower pKa. This change from the neutral to the anionic form is at the origin of the intensity changes observed for STBA and the other complexes presented in this study. […]
Stilbene-4-boronic acid (STBA), 4′-cyanostilbene-4-boronic acid (CSTBA), 4′-methoxystilbene-4-boronic acid (MSTBA) and 4′-(dimethylamino)stilbene-4-boronic acid (DSTBA) were synthesized by the Wittig reaction between the para-substituted benzaldehydes and the para-boronic acid derivative of the benzyltriphenylphosphonium bromide. […] Absorption spectrawere recorded with a Cary 50 UV-Vis spectrophotometer from Varian. Emission spectra were recorded with a Varian Eclipse spectrofluorometer from Varian. […] For all measurements, the absorbances of the solutions were about 0.1 corresponding to a concentration range of 2-3×10^−6 M of the fluorophore. […]

[12] = Yoon et al., cited from earlier work
[13] = compound 6, pH 7.0, phosphate buffer/methanol 2:1
[14] = stilbenes, 33.3% methanol, 50 mM D-fructose, read-out: pKa +D-fructose (50 mM)
[15] = stilbenes, 33.3% methanol, 50 mM D-glucose, read-out: pKa +D-glucose (50 mM)
[16] = stilbenes, solution contained 33.3% methanol, no sugar, read-out: pKa Alone
[17] = stilbenes, pH 8.0, 33.3% methanol, read-out: KD D-galactose
[18] = stilbenes, pH 8.0, 33.3% methanol, read-out: KD D-fructose
[19] = stilbenes, pH 8.0, 33.3% methanol, read-out: KD D-glucose
[20] = compounds 4 and 5, 66.6% methanol, 50 mM fructose, read-out: pKa fructose (50 mM)
[21] = compounds 4 and 5, 66.6% methanol, 170 mM glucose, read-out: pKa glucose (170 mM)
[22] = compounds 4 and 5, buffer with 66.6% (v/v) methanol, read-out: pKa no sugar
[23] = compounds 4 and 5, phosphate buffer pH 8.0/methanol 1:2 (v/v), read-out: KD galactose
[24] = compounds 4 and 5, phosphate buffer pH 8.0/methanol 1:2 (v/v), read-out: KD glucose
[25] = 30 MHz, read-out: KD, Modulation
[26] = 30 MHz, read-out: KD, Phase Angle
[27] = read-out: KD, Steady State Intensity

Compound: OB(O)c1ccccc1 [phenylboronic acid]
- Kd [1]: 3.6 mM
- Kd ([2]; literature value, read-out: KD D-fructose): 0.2 mM
- Kd ([3]; literature value, read-out: KD D-glucose): 9.1 mM

Compound: CN(C)c1ccc(-c2cnc(-c3ccc(B(O)O)cc3)o2)cc1 [compound 6, 5-(4′-Dimethylaminophenyl)-2-(4″-boronophenyl)oxazol]
- pKa in presence of fructose ([4]; compound 6): 5.6
- pKa in presence of glucose ([4]; compound 6): 6.5
- pKa in absence of sugar ([4]; compound 6, λex=350 nm): 7.8
- increase of the emission intensity in presence of galactose [5, 13]: about 3 fold
- Kd ([5]; compound 6, phosphate buffer/methanol (2:1 v/v) at pH 7.0, read-out: Dissociation constant (KD) for galactose): 14 ± 1 mM
- increase of the emission intensity in presence of fructose [6, 13]: about 5 fold
- Kd ([6]; compound 6, phosphate buffer/methanol (2:1 v/v) at pH 7.0, read-out: Dissociation constant (KD) for fructose): 1.9 ± 0.1 mM
- increase of the emission intensity in presence of glucose [7, 13]: about 3 fold
- Kd ([7]; compound 6, phosphate buffer/methanol (2:1 v/v) at pH 7.0, read-out: Dissociation constant (KD) for glucose): 37 ± 3 mM

Compound: N#Cc1ccc(/C=C/c2ccc(B(O)O)cc2)cc1 [CSTBA, 4′-cyanostilbene-4-boronic acid]
- pKa [4, 14]: 5.84
- pKa [4, 15]: 7.3
- pKa [4, 16]: 8.17
- Kd [5, 17]: 12.5 mM
- Kd ([6]; pH 7.0, read-out: dissociation constant for D-fructose): 3.22 mM
- Kd ([6]; pH 7.5, read-out: dissociation constant for D-fructose): 1.19 mM
- Kd [6, 18]: 0.65 mM
- Kd [7, 19]: 18.3 mM

Compound: CN(C)c1ccc(/C=C/C=C/c2ccc(B(O)O)cc2)cc1 [compound 4, 1-(p-Dimethylaminophenyl)-4-(p-boronophenyl)-buta-1,3-diene]
- Kd [8]: 1.12 ± 0.05 mM
- pKa [4, 20]: 6.19 ± 0.04
- pKa [4, 21]: 6.97 ± 0.02
- pKa [4, 22]: 8.9
- Kd [5, 23]: 5.9 ± 0.6 mM
- Kd [7, 24]: 17 ± 2 mM

Compound: CN(Cc1ccccc1B(O)O)Cc1c2ccccc2cc2ccccc12 [compound 7, 9-[[N-Methyl-N-(o-boronobenzyl)amino]methyl]anthracene]
- solubility [9]: relatively low solubility
- Log KS, Mean Lifetime [10]: 2.5 (0.994:4)
- Log KS, Steady State Intensity [10]: 1.7 (0.993:7)
- Log KS, Modulation ([10]; 30 MHz): 2.5 (0.999:6)
- Log KS, Phase Angle ([10]; 30 MHz): 2.2 (0.993:5)
- Kd [10, 25]: 3.4 mM
- Kd [10, 26]: 6.1 mM
- Kd ([10]; read-out: KD, Mean Lifetime): 3.2 mM
- Kd [10, 27]: 19.3 mM

Compound: OB(O)c1ccc(/C=C/c2ccccc2)cc1 [STBA, stilbene-4-boronic acid]
- pKa [4, 14]: 6.4
- pKa [4, 15]: 7.63
- pKa [4, 16]: 8.86
- overall decrease of the fluorescence emission after addition of sugar [11]: about 15%
- Kd [5, 17]: 6 mM
- Kd [6, 18]: 3.4 mM
- Kd [7, 19]: 11 mM

Compound: CN(C)c1ccc(/C=C/C=C/C=C/c2ccc(B(O)O)cc2)cc1 [compound 5, 1-(p-dimethylaminophenyl)-6-(p-boronophenyl)-hexa-1,3,5-triene]
- Kd [8]: 0.84 ± 0.03 mM
- pKa [4, 20]: 6.1 ± 0.05
- pKa [4, 21]: 6.86 ± 0.02
- pKa [4, 22]: 8.75
- Kd [5, 23]: 5.4 ± 0.4 mM
- Kd [7, 24]: 15 ± 1 mM

Compound: COc1ccc(/C=C/c2ccc(B(O)O)cc2)cc1 [MSTBA, 4′-methoxystilbene-4-boronic acid]
- pKa [4, 14]: 6.36
- pKa [4, 15]: 7.88
- pKa [4, 16]: 8.58
- Kd [5, 17]: 26 mM
- Kd [6, 18]: 1 mM
- Kd [7, 19]: 43 mM

Compound: OB(O)c1ccc2cc3ccccc3cc2c1 [anthrylboronic acid, anthryl-2-boronic acid]
- decrease of emission intensity after addition of fructose ([2]; pH 7.4, literature): 30%
- pKa of complex with fructose ([12]; saturated fructose solution): 5.9
- pKa ([12]; uncomplexed): 8.8
- decrease of emission intensity after addition of glucose [3]: about 10%
- decrease of emission intensity after addition of glucose ([3]; listed as anthryl-2-boronic acid): 10%

Compound: CN(Cc1ccccc1B(O)O)Cc1c2ccccc2c(CN(C)Cc2ccccc2B(O)O)c2ccccc12 [compound 8, 9,10-Bis[[N-methyl-N-(o-boronobenzyl)amino]methyl]anthracene]
- solubility [9]: relatively low solubility
- Log KS, Mean Lifetime [10]: 4.4 (0.992:11)
- Log KS, Steady State Intensity [10]: 3.1 (0.998:12)
- Log KS, Modulation ([10]; 30 MHz): 4.1 (0.995:7)
- Log KS, Phase Angle ([10]; 30 MHz): 4.5 (0.996:10)
- Kd [10, 25]: 0.079 mM
- Kd [10, 26]: 0.032 mM
- Kd ([10]; read-out: KD, Mean Lifetime): 0.04 mM
- Kd [10, 27]: 0.79 mM
